Test results reported in patent US8372950B2, “IgG binding peptide” (Kagoshima University, priority 2006, dated 2013).
Positions of bridges follow the written chain, without caps; N, C: chain ends. Residues, ends and D or L forms follow the SMILES beside them. No end group written: not given here. *: point of attachment. Biotin = O=C1N[C@H]2[C@H](CS[C@H]2CCCCC(=O)*)N1; Ahx = NCCCCCC(=O)O

Legend:
[1] = tested on: human IgG; assay: ELISA assay of biotinylated synthetic peptides on human IgG; assay type: binding; conditions: FIG. 6; for binding to human IgG: biotinylated peptide
Experimental: (§1) The binding activity of the thus obtained biotinylated synthetic peptides to human IgG was assayed by an ELISA assay. The ELISA assay was conducted basically in a manner similar to that in Example 1. Specifically, wells coated with human IgG (100 ng/50 μl/well) were blocked by the addition of 0.5% BSA. A biotinylated synthetic peptide and alkaline phosphatase-labeled streptavidin (SA-AP) were mixed in advance at a molar ratio of 4:1 and then the mixture was added to the well, followed by 1 hour of reaction. Para-nitrophenyl phosphate (Wako) was used for color development. Detection was carried out by measuring absorbance at 405 nm. As a positive control of human IgG, the Fc fragment of hIgG was used. As other control proteins, human IgA and IgE, mouse IgG, IgA, and IgE, hTF, fetal bovine serum (FBS), HSA, BSA, and gelatin were used.

[2] = tested on: human IgG isotypes (hIgG1 to hIgG4); assay: ELISA assay of biotinylated synthetic peptides on human IgG isotypes; assay type: binding; conditions: FIG. 7
Experimental: as §1
Furthermore, the binding activity of the biotinylated synthetic peptides to human IgG isotypes (hIgG1 to hIgG4), was assayed similarly by an ELISA assay. As a control protein of human IgG, BSA was used.

[3] = tested on: human IgG; assay: SPR kinetic analysis of binding between synthetic peptides and human IgG; conditions: for association rate constants (ka) / dissociation rate constants (kd) / Kd: biotinylated peptide immobilized on sensor chip SA, human IgG as analyte, 25° C.; for Kd: read-out: Dissociation constants (Kd)
Experimental: Binding between the synthetic peptide IMGpep-1, IMGpep-1E6Q, IMGpep-4, or IMGpep-4K6R and human IgG was subjected to kinetic analysis of binding using surface plasmon resonance (SPR). SPR analysis was carried out using BIAcore2000 (BIAcore) at 25° C. Necessary reagents and sensor chips were purchased from BIAcore and then used. A 50 μM solution (pH 5) of each of four biotinylated synthetic peptides (IMGpep-1, IMGpep1E6Q, IMGpep4, and IMGpep-4K6R) was injected over a sensor chip SA, so as to immobilize the peptide on the chip. The amount of each peptide to be immobilized was adjusted so that the RU (response unit) ranged from 1500 to 2000. Subsequently, human IgG (analyte) was injected at a flow rate of 10 μl/min and at various concentrations (660 nM, 330 nM, 165 nM, 82 nM, and 41 nM) through flow cells with the aforementioned sensor chips SA on which the biotinylated-peptides had been immobilized. Binding reaction between human IgG and the peptides was measured. Thereafter, washing with running buffer (HBS-T) was conducted and then dissociation reaction was measured. For washing/elution of bound analytes from the sensor chips, 0.2 M glycine-HCl buffer (pH 2.7) was used. Binding parameters were analyzed using BIA evaluation Version 3.2 software.

[4] = tested on: Fc fragment of hIgG; assay: ELISA assay of biotinylated synthetic peptides on Fc fragment; assay type: binding, human; conditions: biotinylated peptide, FIG. 6
Experimental: as §1

[5] = tested on: human IgG; assay: immunoprecipitation of human IgG with peptide- or phage-immobilized magnetic beads; assay type: binding; conditions: immobilized on magnetic beads, FIG. 9; for immunoprecipitated human IgG: western blotting
Experimental: The above cloned T7 phage G-1 (1.0×10^12 pfu) subjected to ultracentrifuge purification or a synthetic peptide IMGpep-1 (150 nmol) was immobilized on 3 mg of tosyl-activated M450 Dynabeads magnetic beads (Dynal) via covalent binding to the terminal amino group according to the protocols recommended by the manufacturer. The beads were blocked with a PBS solution containing 0.5% BSA and then added to 1 ml of hIgG/BSA/PBS (10 μg/ml hIgG and 1 mg/ml BSA), followed by 1 hour of reaction at room temperature while mixing the solution via stirring. Beads were washed 3 times with PBST, SDS-sample buffer was added thereto, and then SDS-PAGE fractionation was carried out. Subsequently, they were subjected to western blotting analysis using a biotinylated anti-hIgG goat polyclonal antibody (Goat Anti-hIgG-pAb-biotin; Pharmingen) and SA-HRP, and then human IgG immunoprecipitated by binding to beads was detected.
Furthermore, immunoprecipitation reaction was similarly carried out using phage clones G-1 415 or IMGpep-2 instead of phage G-1 or IMGpep-1 to detect human IgG. Here, the phage clone G-1 415 (Novagen) is a phage displaying G-1 peptide at all the 415 G10 proteins composing the capsid of T7 phage. Moreover, immunoprecipitation reaction and detection were similarly carried out using an anti-hIgG goat (Fab′)2 fragment, wild-type T7 phage, and BSA, as a control of phage G-1 or IMGpep-1.

[6] = biological target: T1, anti-HER2 human IgG (Homo sapiens, UniProt P01857); assay: separation on IMGpep-4K6R-immobilized column; assay type: binding; conditions: untreated anti-HER2 human IgG sample
T1 construct: purchased Herceptin
T1 sequence (P01857 1-330 isoform P01857-1, other chains not shown): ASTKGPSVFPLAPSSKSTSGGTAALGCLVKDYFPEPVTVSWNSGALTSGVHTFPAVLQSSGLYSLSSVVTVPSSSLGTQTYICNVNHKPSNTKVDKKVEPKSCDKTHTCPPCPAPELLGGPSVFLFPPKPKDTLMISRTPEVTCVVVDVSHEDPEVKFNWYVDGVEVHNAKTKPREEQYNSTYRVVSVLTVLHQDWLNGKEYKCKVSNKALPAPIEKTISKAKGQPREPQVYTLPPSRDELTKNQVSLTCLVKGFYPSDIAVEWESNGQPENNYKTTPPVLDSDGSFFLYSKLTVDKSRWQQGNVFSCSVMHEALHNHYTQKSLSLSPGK
Experimental: Moreover, a biotinylated IMGPep-4K6R peptide (biotin-spacer-[…] (SEQ ID NO: 11)) solution (500 μM, 1 ml) was injected to a HiTrap Streptavidin HP column (GE Healthcare) to prepare the column in which IMGPep-4K6R was immobilized. The antibody sample was injected at a flow rate of 0.4 ml/min to the IMGPep-4K6R-immobilized column. Gradient elution was carried out using from 20 mM phosphate buffered saline (PBS, pH 7.0) containing 0.1 M NaCl to 0.1M glycine-HCl (pH 2.5) containing 0.1 M NaCl.

[7] = biological target: T2, human IgG MRA (Homo sapiens, UniProt P01857); assay: immunoprecipitation of MRA fractions with IMGpep-4K6R peptide; assay type: binding
T2 construct: purchased Chugai Pharmaceutical
T2 sequence (P01857 1-330 isoform P01857-1, other chains not shown): as above
Experimental: An immunoprecipitation experiment using an IMGpep-4K6R peptide was conducted by a method similar to that employed in Example 8 for each of an untreated MRA sample, an acid-treated MRA sample (acid treated for 10 minutes at pH 2.2 and 4° C.), a flow-through fraction obtained by passing an acid-treated MRA sample through a biotinylated IMGPep-4K6R peptide-immobilized column, and a purified acid-denatured MRA sample (an adsorbed fraction obtained by passing a human IgG sample subjected to 10 minutes of acid treatment at pH 2.2 and 4° C. through an IMGpep-4K6R peptide-immobilized column). IgG precipitated with the peptide immobilized on magnetic beads was subjected to 12.5% SDS-PAGE and then to CBB staining, and then observed.

[8] = biological target: T3, human MRA (IgG) (Homo sapiens, UniProt P01857); assay: dot blotting detection of human MRA (IgG) on nitrocellulose membranes; assay type: binding
T3 construct: purchased Chugai Pharmaceutical
T3 sequence (P01857 1-330 isoform P01857-1, other chains not shown): as above
Experimental: Specifically, acid-treated human MRA (IgG) and untreated human MRA (IgG) were spotted on nitrocellulose membranes in an amount of 1.5 ng, 3 ng, 6 ng, 12.5 ng, 25 ng, 50 ng, and 100 ng per spot. The membranes were dried for 5 minutes and then 0.5% BSA was added for blocking for 2 hours at room temperature. Here, acid-treated human MRA was prepared by adding 10 μl of 1 M glycine-HCl (pH 2.8) to 100 μl of humanized anti-human IL-6 receptor IgG antibody (MRA) (2000 μg/ml, PBS solution), carrying out incubation at 40° C. for 10 minutes, and then neutralizing it by the addition of 30 μl of 1 M Tris-HCl (pH 8.7).
The mixture was added to the membranes blocked as described above, followed by 1 hour of reaction. After 3 times of washing with PBS containing 0.1% Tween20, a chemiluminescence reagent (Chemi-Lumi One, Nakalai Tesque) was added. Images were analyzed for detection using a LAS-1000 Image Analyzer (Fuji Film).

[9] = biological target: IgG antibody; conditions: literature (DeLano et al.; Dias et al.); cited from earlier work

| Compound | binding activity to human IgG1, IgG2, IgG3, and IgG4 [2] | association rate constants (ka) [3] [M⁻¹ s⁻¹] | dissociation rate constants (kd) [3] [s⁻¹] | Kd [3] [nM] | binding to human IgG [1] | also measured |
| --- | --- | --- | --- | --- | --- | --- |
| CC(C)C[C@@H]1NC(=O)CNC(=O)[C@H](Cc2c[nH]c3ccccc23)NC(=O)[C@H](CCC(N)=O)NC(=O)[C@H](CO)NC(=O)[C@H](CCCNC(=N)N)NC(=O)[C@H](Cc2c[nH]c3ccccc23)NC(=O)[C@H](Cc2ccc(O)cc2)NC(=O)CNC(=O)[C@@H](NC(=O)CNC(=O)CCCCCNC(=O)CCCC[C@@H]2SC[C@@H]3NC(=O)N[C@@H]32)CSSC[C@@H](C(=O)NCC(=O)O)NC1=O [IMGpep-1E6Q] ({Biotin-Ahx}-GCGYWRSQWGLCG-OH; disulfide 2-12) | strong binding activity | 15000 | 0.00031 | 21 | – | binding activity compared with the original peptides IMGpep-1 and IMGpep-4 [1]: significantly and drastically increased; binding activity to human IgG1 to IgG4 relative to IMGpep-1 and IMGpep-4 [2]: increase to a greater extent |
| DCAWHLGELVWCT [Fc-III] | – | – | – | – | – | Kd [9]: 185 nM |
| GCTGFWEREWGLCG [IMGpep-2] | – | – | – | – | – | immunoprecipitated human IgG [5]: clearly observed |
| GSGYWRSEWGLSG ({Biotin-Ahx}-GSGYWRSEWGLSG) [IMGpep-1CS] | almost completely lose its binding activity | – | – | – | almost lose the binding activity | increased response signal due to the binding ([3]; control ligand immobilized, human IgG injected): never observed; detection of spots of untreated human MRA (IgG) ([8]; untreated MRA, CS(N)): could not detect any spots |

Further lines, with some results ahead:

| binding activity to human IgG1, IgG2, IgG3, and IgG4 [2] | association rate constants (ka) [3] [M⁻¹ s⁻¹] | dissociation rate constants (kd) [3] [s⁻¹] | Kd [3] [nM] | binding to human IgG [1] | Compound | also measured |
| --- | --- | --- | --- | --- | --- | --- |
| strong binding activity | 20000 | 0.00034 | 17 | specifically bound to human IgG | CC(C)C[C@@H]1NC(=O)CNC(=O)[C@H](Cc2c[nH]c3ccccc23)NC(=O)[C@H](CCC(=O)O)NC(=O)[C@H](CO)NC(=O)[C@H](CCCNC(=N)N)NC(=O)[C@H](Cc2c[nH]c3ccccc23)NC(=O)[C@H](Cc2ccc(O)cc2)NC(=O)CNC(=O)[C@@H](NC(=O)CNC(=O)CCCCCNC(=O)CCCC[C@@H]2SC[C@@H]3NC(=O)N[C@@H]32)CSSC[C@@H](C(=O)NCC(=O)O)NC1=O [IMGpep-1] ({Biotin-Ahx}-GCGYWRSEWGLCG-OH; disulfide 2-12) | binding to the Fc fragment of human IgG [4]: bound to the Fc fragment of human IgG; human IgG trapping efficiency compared with IMGpep-2 [5]: clearly higher; immunoprecipitated human IgG [5]: clearly observed |
| strong binding activity | 16000 | 0.00038 | 24 | – | CC(C)C[C@@H]1NC(=O)CNC(=O)[C@H](Cc2c[nH]c3ccccc23)NC(=O)[C@H](C)NC(=O)[C@H](CCCNC(=N)N)NC(=O)[C@@H]2CCCN2C(=O)[C@H](Cc2c[nH]c3ccccc23)NC(=O)[C@H](Cc2ccc(O)cc2)NC(=O)CNC(=O)[C@H]([C@@H](C)O)NC(=O)[C@@H](NC(=O)CNC(=O)CCCCCNC(=O)CCCC[C@@H]2SC[C@@H]3NC(=O)N[C@@H]32)CSSC[C@@H](C(=O)NCC(=O)O)NC1=O [IMGpep-4K6R] | binding activity compared with the original peptides IMGpep-1 and IMGpep-4 [1]: significantly and drastically increased; binding activity to human IgG1 to IgG4 relative to IMGpep-1 and IMGpep-4 [2]: increase to a greater extent; behaviour of IgG on the column [6]: passed through; immunoprecipitation of MRA antibody ([7]; flow-through fraction of acid-treated MRA, lane 4): never observed; immunoprecipitation of MRA antibody ([7]; untreated MRA, lane 1): not immunoprecipitated; antibody sample sufficiently detected ([8]; acid-treated MRA (pH 2.8, 40° C., 10 minutes), K6R(A)): ≤ 1.5 ng/mL; IgG-detection sensitivity and intensity after acid treatment ([8]; acid-treated MRA, K6R(A)): greatly enhanced; lowest spot of untreated human MRA (IgG) detected ([8]; untreated MRA, K6R(N)): ≤ 1.5 ng/mL; overall signal intensity of the detected spots ([8]; untreated MRA, K6R(N)): significantly weak |
| strong binding activity | 14000 | 0.00041 | 28 | specifically bound to human IgG | CC(C)C[C@@H]1NC(=O)CNC(=O)[C@H](Cc2c[nH]c3ccccc23)NC(=O)[C@H](C)NC(=O)[C@H](CCCCN)NC(=O)[C@@H]2CCCN2C(=O)[C@H](Cc2c[nH]c3ccccc23)NC(=O)[C@H](Cc2ccc(O)cc2)NC(=O)CNC(=O)[C@H]([C@@H](C)O)NC(=O)[C@@H](NC(=O)CNC(=O)CCCCCNC(=O)CCCC[C@@H]2SC[C@@H]3NC(=O)N[C@@H]32)CSSC[C@@H](C(=O)NCC(=O)O)NC1=O [IMGpep-4] ({Biotin-Ahx}-GCTGYWPKAWGLCG-OH; disulfide 2-13) | binding to the Fc fragment of human IgG [4]: bound to the Fc fragment of human IgG |
